In patent US20240391940A1, “FUSED RING-CONTAINING COMPOUND, APPLICATION THEREOF, AND COMPOSITION CONTAINING SAME” (GenEros Biopharma Ltd., priority 2020, published 2024):
Where “and” joins values, the source holds several entries; their conditions need not be identical. Equal entries are not always repeated.

What was measured:
[1] = tested on: LPS-induced production of TNF-α; test: LPS-induced TNF-α production in mice (plasma ELISA); format: in vivo; details: Balb/c mice; dexamethasone 3 mpk, LPS 1 mpk i.p. 0.5 h after administration, plasma 2 h after LPS
Description: Materials and method: A total of 18 mice were used in this experiment. The mice were divided into a MOCK group (n=6), a dexamethasone group (n=6), and a GEN1-284s 15 mpk group (n=6). LPS (1 mpk) was intraperitoneally injected 0.5 h after administration. The mice were sacrificed 2 h after the LPS injection, and blood samples were taken. The blood samples were left in EDTA-K2 anticoagulant tubes at room temperature for 20 min and centrifuged at 8000 rpm for 10 min. The plasma was separated and cryopreserved at −80° C. before analysis.
LPS (1 mpk) was intraperitoneally injected 0.5 h after administration. The mice were sacrificed 2 h after the LPS injection, and blood samples were taken. The blood samples were left in EDTA-K2 anticoagulant tubes at room temperature for 20 min and centrifuged at 8000 rpm for 10 min. The plasma was separated and cryopreserved at −80° C. before analysis.
The mice were tested for TNF-α level with ELISA kits, and the inhibitory effect of GEN1-284s on the TNF-α level was evaluated.
According to the instructions for use, a standard curve formula (y=0.0038x+0.1206, R^2=0.9956) was obtained and can be used to calculate detection values.

[2] = tested on: IMQ-induced psoriasis mouse model; test: IMQ-induced psoriasis mouse model (PASI scoring); format: in vivo, Balb/c mice; design: key to skin thickening in psoriasis mice (score) / skin redness in psoriasis mice (score) / skin scaling in psoriasis mice (score): 0 = none to 4 = very severe, per sign; details: DEX 3 mpk PO QD
Description: Method: This experiment used a total of 19 mice. A natural skin observation control (n=1). 2 cm^2 of hair was shaved off the backs of […] on day 0, the stubble was removed with a mild depilatory cream, and the original skin was photographed. 62.5 mg of IMQ was applied to each of the mice. There was a mock group (n=6), a DEX (3 mg/kg, PO., qD) group (n=6), and a GEN1-284s (30 mg/kg, PO, qD) group (n=6). On the day of modeling, administration was performed in a volume of 100 μL/20 g body weight 4 h after IMQ application. The PASI scoring method was used to score the erythema, swelling and scaling on the skin of the mice. The experiment took a total of 6 days. The first day was set to day 0. IMQ application and administration were not performed on day 5. The mice were sacrificed with carbon dioxide at the end of the experiment.
The test animals were anesthetized with isoflurane. 2 cm^2 of hair was shaved off the backs of the mice, and the stubble was removed with a depilatory cream. IMQ application was performed for a total of 5 days, from day 0 to day 4. Scoring and IMQ application were performed every morning. Administration was performed in the afternoon
Desquamation (D): means epidermal cells flake off. The severity scores of skin lesions were as follows: • 0=none; this sign cannot be confirmed by careful observation • 1=mild; this sign can be confirmed but careful observation is required • 2=moderate; this sign is more visible and can be confirmed immediately • 3=severe; this sign is marked. • 4=very severe; this sign is very marked.
Induration I: 0—skin lesions are at the same level as normal skin; • 1—skin lesions are at slightly higher levels than normal skin surface; • 2—lesions moderately stick out and have round or slope-shaped borders; • 3—skin lesions are thick and markedly stick out; • 4—skin lesions are very thick and very markedly stick out.
Erythema E: • 0—no visible erythema; • 1—light red; • 2—red; • 3—dark red; • 4—the red is very dark

[3] = DAY 1, individual mice, listed as DEX
[4] = DAY 2, individual mice, listed as DEX
[5] = DAY 3, individual mice, listed as DEX
[6] = DAY 4, individual mice, listed as DEX
[7] = DAY 5, individual mice, listed as DEX

## C[C@@H]1C[C@H]2[C@@H]3CCC4=CC(=O)C=C[C@]4(C)[C@@]3(F)[C@@H](O)C[C@]2(C)[C@@]1(O)C(=O)CO [dexamethasone, Dexamethasone, reference compound]
[1]
  Inhibition rate against LPS-induced TNF-α: 81%
[2]; DAY 0, individual mice
  overall effect on the skin of psoriasis mice (score): 0
  skin redness in psoriasis mice (score): 0
  skin scaling in psoriasis mice (score): 0
  skin thickening in psoriasis mice (score): 0
[2]; [3]
  overall effect on the skin of psoriasis mice (score): 1.167 (2×) and 0.5 and 1.333 (2×) and 0.8333
  skin redness in psoriasis mice (score): 0.6667 (2×) and 0.1667 and 0.3333 and 0.5 (2×)
  skin scaling in psoriasis mice (score): 0.5 and 0.3333 (2×) and 0.8333 (2×) and 0.1667
  skin thickening in psoriasis mice (score): 0 (5×) and 0.5
[2]; [4]
  overall effect on the skin of psoriasis mice (score): 1.333 and 1 and 0.5 and 0.8333 and 1.667 and 0.6667
  skin redness in psoriasis mice (score): 0.5 (2×) and 0.6667 (2×) and 0.1667 (2×)
  skin scaling in psoriasis mice (score): 0.8333 and 0.3333 and 0 (2×) and 0.6667 and 1
  skin thickening in psoriasis mice (score): 0 (5×) and 0.5
[2]; [5]
  overall effect on the skin of psoriasis mice (score): 2.5 and 3 and 1 and 2 (2×) and 1.667
  skin redness in psoriasis mice (score): 1.167 and 1 and 0.5 (2×) and 0.3333 and 0.6667
  skin scaling in psoriasis mice (score): 1.333 and 1.5 and 0.5 (2×) and 1 and 1.167
  skin thickening in psoriasis mice (score): 0 (2×) and 0.5 (4×)
[2]; [6]
  overall effect on the skin of psoriasis mice (score): 2.333 (2×) and 1.5 and 3.5 and 3.667 and 2.667
  skin redness in psoriasis mice (score): 0.6667 and 0.5 (2×) and 1.167 (2×) and 1.667
  skin scaling in psoriasis mice (score): 1.167 and 1 (2×) and 1.833 and 1.333 and 1.5
  skin thickening in psoriasis mice (score): 0.5 (5×) and 0
[2]; [7]
  overall effect on the skin of psoriasis mice (score): 3.333 and 2.5 and 3.667 and 2.833 (2×) and 3.5
  skin redness in psoriasis mice (score): 1.167 and 1 (2×) and 0.8333 and 0.6667 and 1.5
  skin scaling in psoriasis mice (score): 1.667 (2×) and 1.5 (2×) and 2.333 and 1.333
  skin thickening in psoriasis mice (score): 0.5 (5×) and 0
